Experiments:
[1] = tested on: Female ob/ob obese diabetic mice; assay: Bromocriptine and GBR 12909, alone and combined, 14 days in ob/ob mice (Example 8); type: in vivo; conditions: bromocriptine 10 mg/kg, GBR 12909 20 mg/kg, daily 14 days, FIG. 10
Protocol: The effects of adding GBR (a selective dopamine reuptake inhibitor) to bromocriptine (a dopamine D2 receptor agonist that can reduce central norepinephrine neuronal activity) in an effort to circumvent the impact of the D2 receptor agonist effect to reduce endogenous dopamine and to therefore improve metabolic disorders was examined in ob/ob mice treated with either vehicle, bromocriptine (BC) (10 mg/kg), GBR 12909 (20 mg/kg) or bromocriptine (10 mg/kg) plus GBR 12909 (20 mg/kg). Female ob/ob obese diabetic mice were fed standard chow and different groups of animals (n=5-7 group) were treated daily for 14 days with bromocriptine (to reduce norepinephrine neuronal activity) (10 mg/kg), GBR 12909 (to increase dopaminergic neuronal activity) (20 mg/kg) or with bromocriptine (10 mg/kg) plus GBR 12909 (20 mg/kg), or vehicle. […] BC had no effect on blood glucose level. The BC/GBR effect on blood glucose level was more than additive of the individual effects of BC and GBR combined (FIG. 10)

[2] = tested on: mice fed a high fat diet for 20 weeks; assay: Bromocriptine and GBR 12909, alone and combined, in high fat diet mice (Example 12); type: in vivo; conditions: bromocriptine 5 mg/kg, GBR 12909 5 mg/kg
Protocol: The effects of adding GBR (a selective dopamine reuptake inhibitor) to bromocriptine (a dopamine D2 receptor agonist that can reduce central norepinephrine neuronal activity) in an effort to circumvent the impact of the D2 receptor agonist effect to reduce endogenous dopamine and to therefore improve metabolic disorders was examined in mice fed a high fat diet for 20 weeks and then treated with either vehicle, bromocriptine (BC) (5 mg/kg), GBR 12909 (5 mg/kg) or bromocriptine (5 mg/kg) plus GBR 12909 (5 mg/kg). […] Again, increasing central dopaminergic neuronal activity and decreasing central norepinephrine neuronal activity simultaneously produces synergistic reductions in metabolic disorders. […] BC alone had no effect on plasma insulin level (FIG. 21).

In the case of `CC(C)C[C@H]1C(=O)N2CCC[C@H]2[C@]2(O)O[C@](NC(=O)[C@@H]3C=C4c5cccc6[nH]c(Br)c(c56)C[C@H]4N(C)C3)(C(C)C)C(=O)N12` [bromocriptine], the blood glucose level [1] is reported as “no effect”, the plasma insulin level ([2]; FIG. 21) is reported as “no effect” and the “HOMA-IR (insulin resistance)” value ([2]; FIG. 22) is reported as “no significant effect”.

From patent US9655865B2, “Therapeutic treatment for metabolic syndrome, type 2 diabetes, obesity, or prediabetes” (VeroScience, LLC, priority 2002, dated 2017)
